Test results reported in patent US20250221976A1, “COMPOUNDS, COMPOSITIONS AND METHODS OF TREATING NEUROPATHIC PAIN” (THE UNIVERSITY OF HONG KONG, priority 2024, published 2025).

Experiments:
[1] = system: spared nerve injury (SNI) rat model; assay: Von Frey test, mechanical allodynia in spared nerve injury (SNI) rats; assay type: in vivo; details: 50 μg/kg/day intrathecally, from 14 days post injury
From the text: (§1) The SNI surgery was constructed as previously described^16, 17. In brief, after animals were anesthetized by isoflurane (1.5-2.5%), a half centimeter incision was made in the middle of the outer. Muscles from the upper layer were bluntly dissected to expose the sciatic nerve and its branches to the left hind leg's common peroneal, tibial, and peroneal nerves. Then, the front two nerves were clipped, and the […]. In the sham-operated group, the sciatic nerve was only exposed, and no clipping or injury was done. After suturing the skin, animals were transferred to an observation box for recovery.
(§2) Intrathecal administration of vehicle or drugs was conducted by direct lumbar puncture in the L5-L6 intervertebral space with a 30-gauge needle following the method of Mestre^18. This procedure was performed under isoflurane anesthesia to permit rapid recovery of the animals. The quality of each injection was ensured by the observation of an injection-induced tail-flick.
Assessment of mechanical allodynia was using the Von Frey test as previously described^17. The animals were placed in plastic cages with metal mesh on the bottom and allowed to acclimatize for at least half an hour before each test. Each Von Frey wire was held perpendicular to the contact surface of the paw until it bent. […]

[2] = system: spared nerve injury (SNI) rat model; assay: Acetone test, cold allodynia in SNI rats; assay type: in vivo; details: 50 μg/kg/day intrathecally, from 14 days post injury
From the text: as §1, §2
Assessment of cold allodynia was using acetone test^20. Animals were placed in the assessment cage described above for habituation. Acetone was collected by pipette for each trial. […] As the acetone fast spread across the plantar skin and evaporated, noxious withdrawal responses of the hind paw (fluttering, licking, or hanging) against the cold stimuli was recorded. […]

[3] = system: spared nerve injury (SNI) rat model; assay: Pin test, hyperalgesia in SNI rats; assay type: in vivo; details: 50 μg/kg/day intrathecally, from 14 days post injury
From the text: as §1, §2
Hyperalgesia was evaluated by pin test described previously^20. […] Normal response (brief flinch) or noxious-like response (sustained elevation of the paw with licking, shaking, or grooming) was recorded in 10 repeated trials with a minimum of 10 seconds' gap. Data was expressed as percentage of noxious-like response out of 10 trials.

NRF2 = assay: Immunoblot of NRF2 expression in L4-L6 DRG of SNI rats; assay type: in vivo, rat; details: 50 μg/kg, DRG collected 3 h after administration, versus vehicle
From the text: as §1, §2
For western blotting, L4-6 DRGs were extracted from the ipsilateral surgery of SNI rats and stored in liquid nitrogen to be set aside. DRGs were then sheared in pre-cooled potent RIPA lysate (containing protease and phosphatase inhibitors) and their whole cell lysates were obtained by ultrasonic crushing on ice. […] Immunoreactive bands were detected by chemiluminescence.

ROS level in DRG neurons = ROS level in DRG neurons by DCFH-DA flow cytometry; assay type: in vivo, rat; details: SNI rats, 50 μg/kg i.th, 3 h after administration, versus vehicle
From the text: as §1
Intrathecal administration of vehicle or drugs was conducted by direct lumbar puncture in the L5-L6 intervertebral space with a 30-gauge needle following the method of Mestre^18. […]
ROS level of DRG neurons were labeled by ROS Assay Kit (Beyotime Co., Ltd., China) and detected by flow cytometry according to the manufacturer's instructions. […] However, after entering the cell, DCFH-DA is hydrolyzed by cellular esterase to generate DCFH (2′,7′-dichlorodihydrofluorescein), which is non-permeable to the cell membrane, and can be oxidized by ROS into fluorescent DCF (2′,7′-dichlorofluorescein) that can be detected by flow cytometry. The fluorescence intensity represents the intracellular ROS levels.

[4] = system: voltage-gated sodium (NaV) channels; assay: Whole-cell voltage clamp of NaV currents in small diameter DRG neurons; assay type: cell-based, rat; details: primary cultured small diameter (<30 μm) DRG neurons, 20 μM overnight
Experimental: DRG neurons were obtained from rodents by acute isolation as previously described^21, 22. After animals were euthanized, the dorsal skin was removed to perform laminectomy to expose DRG, L4-L6 DRGs were rapidly collected from the intervertebral foramen. The collected DRGs were digested in 3 mL bicarbonate-free, serum-free, sterile DMEM (cat. no. 11965; Thermo Fisher Scientific) containing a mixture of enzymes (neutral protease, 3.125 mg/mL (cat. no. LS02104; Worthington) and collagenase Type I 5 mg/mL (cat. no. LS004194; Worthington)), incubated in a shaker at 37° C. […]
(§3) Whole-cell voltage clamp recording was performed as previously described. […] Data were obtained by Patchmaster (HEKA) and analyzed with Fitmaster (HEKA). […]
(§4) NaV currents were measured from rodent DRG small diameter (<30 μm) neurons. […] This process occurs between 0 and 10 mV and can be analyzed as a function of voltage, as inferred from the peak current density (normalized to the cell capacitance (picofarad, pF)); (ii) Inactivation protocol: starting from a clamp potential of −60 mV, a hyperpolarization/depolarization pulse of 1 second in the range of −120 to 20 mV, in steps of +10 mV for 1 second. […] The Boltzmann relevant factors, similar to half-maximal activation (V50) and slope, for the single fits to the data, are calculated, summarized, and compared among groups. […]

NaV1.7 = target: T1, NaV1.7 (Homo sapiens, UniProt Q15858); assay: Whole-cell voltage clamp of NaV1.7 currents in transfected HEK293 cells; assay type: cell-based
T1 construct: conflicts with the methods; host or cells: HEK293
T1 sequence (Q15858 whole entry): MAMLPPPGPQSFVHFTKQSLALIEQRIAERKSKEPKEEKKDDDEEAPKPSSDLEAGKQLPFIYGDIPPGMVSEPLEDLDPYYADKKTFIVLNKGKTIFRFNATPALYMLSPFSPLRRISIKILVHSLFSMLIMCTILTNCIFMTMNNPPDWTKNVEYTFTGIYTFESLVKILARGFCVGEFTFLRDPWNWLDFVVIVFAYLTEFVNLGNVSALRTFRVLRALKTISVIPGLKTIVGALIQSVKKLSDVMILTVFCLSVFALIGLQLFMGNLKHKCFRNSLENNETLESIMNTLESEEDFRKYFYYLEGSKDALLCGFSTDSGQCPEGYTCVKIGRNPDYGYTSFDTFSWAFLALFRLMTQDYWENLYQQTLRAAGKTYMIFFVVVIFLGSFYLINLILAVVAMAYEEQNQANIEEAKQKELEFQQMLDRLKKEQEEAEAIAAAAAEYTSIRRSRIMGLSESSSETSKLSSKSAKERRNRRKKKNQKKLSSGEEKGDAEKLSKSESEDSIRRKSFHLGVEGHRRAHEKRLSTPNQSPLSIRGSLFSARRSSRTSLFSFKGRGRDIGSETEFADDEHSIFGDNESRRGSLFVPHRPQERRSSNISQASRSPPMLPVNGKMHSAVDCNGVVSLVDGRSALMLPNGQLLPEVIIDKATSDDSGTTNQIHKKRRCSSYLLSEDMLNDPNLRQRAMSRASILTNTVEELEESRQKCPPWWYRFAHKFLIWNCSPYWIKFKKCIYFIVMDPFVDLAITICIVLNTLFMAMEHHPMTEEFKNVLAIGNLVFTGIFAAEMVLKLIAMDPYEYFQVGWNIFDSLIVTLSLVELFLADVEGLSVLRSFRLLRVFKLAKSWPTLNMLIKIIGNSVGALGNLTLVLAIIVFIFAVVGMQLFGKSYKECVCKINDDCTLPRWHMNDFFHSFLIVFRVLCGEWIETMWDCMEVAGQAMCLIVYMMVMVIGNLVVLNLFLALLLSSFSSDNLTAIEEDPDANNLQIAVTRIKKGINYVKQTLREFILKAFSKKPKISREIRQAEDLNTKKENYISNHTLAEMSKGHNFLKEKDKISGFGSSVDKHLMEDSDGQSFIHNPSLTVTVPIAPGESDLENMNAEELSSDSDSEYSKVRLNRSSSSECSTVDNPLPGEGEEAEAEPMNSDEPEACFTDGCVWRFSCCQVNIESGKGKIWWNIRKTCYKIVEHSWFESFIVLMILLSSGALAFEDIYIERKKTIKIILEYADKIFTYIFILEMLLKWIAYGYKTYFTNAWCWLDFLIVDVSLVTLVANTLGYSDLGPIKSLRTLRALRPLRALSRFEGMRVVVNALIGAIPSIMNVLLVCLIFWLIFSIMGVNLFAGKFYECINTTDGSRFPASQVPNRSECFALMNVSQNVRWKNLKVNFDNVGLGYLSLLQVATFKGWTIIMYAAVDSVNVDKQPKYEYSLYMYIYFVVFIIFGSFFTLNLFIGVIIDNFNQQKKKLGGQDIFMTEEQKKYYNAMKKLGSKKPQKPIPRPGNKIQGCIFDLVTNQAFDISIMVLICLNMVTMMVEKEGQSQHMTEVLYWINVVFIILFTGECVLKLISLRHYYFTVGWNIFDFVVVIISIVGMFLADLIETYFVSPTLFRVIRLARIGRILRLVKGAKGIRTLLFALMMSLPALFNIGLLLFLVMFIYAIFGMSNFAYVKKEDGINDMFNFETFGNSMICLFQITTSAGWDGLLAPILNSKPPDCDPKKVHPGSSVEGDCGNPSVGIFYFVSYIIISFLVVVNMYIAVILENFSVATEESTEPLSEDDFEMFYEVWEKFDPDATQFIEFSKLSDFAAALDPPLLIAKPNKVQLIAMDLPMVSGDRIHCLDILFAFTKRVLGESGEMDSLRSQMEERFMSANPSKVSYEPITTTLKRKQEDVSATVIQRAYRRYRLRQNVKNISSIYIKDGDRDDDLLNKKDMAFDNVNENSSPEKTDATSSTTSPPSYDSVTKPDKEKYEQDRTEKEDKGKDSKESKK
Experimental: HEK293 cells were purchased from Shanghai Institute of Biological Sciences, Chinese Academy of Sciences. HEK293 cells were cultured in medium (DMEM containing 10% fetal bovine serum and 1% penicillin/streptomycin) in an atmosphere of 5% CO2 at 37° C.
The NaV1.7 sequence was synthesized by GenScript (Nanjing, Jiangsu Province, China) and inserted into the pcDNA3.1 (+)-C-DYK plasmid between the BamH1 and EcoRI restriction sites. The empty plasmid of pcDNA3.1 purchased from Shenzhen Yanming Biotechnology Company was used as a mock transfection control. […]
as §3, §4

Cc1ccc(-c2noc(-c3ccc(F)c(F)c3)n2)cn1 [Compound 1, 5-(3,4-difluorophenyl)-3-(6-methylpyridin-3-yl)-1,2,4-oxadiazole]
max inhibiting rate in mechanical allodynia [1]: about 70.0% | max inhibiting rate in cold allodynia [2]: ~35.0% | max inhibiting rate in hyperalgesia [3]: ~37.5% | expression level of NRF2 in L4-L6 DRG (NRF2): increased the expression level of NRF2 | ROS level in DRG neurons (DCF staining) (ROS level in DRG neurons): decreased | inhibition of NaV currents [4]: significant inhibition of NaV currents | inhibition of NaV1.7 current density under excessive oxidative stress (NaV1.7; HEK293 cells transfected with NaV1.7, pre-treated with H2O2 (500 μM, 20 min), then 20 μM overnight): Same inhibiting properties | inhibition of NaV1.7 current density (NaV1.7; HEK293 cells transfected with NaV1.7 plasmid, 20 μM overnight): significantly inhibited NaV1.7 current density
